Measured values taken from patent US6995177B1, “HCV NS3 protease inhibitors” (Istituto Di Ricerche Di Biologia Molecolare P Angeletti SPA, priority 1999, dated 2006).

Target: HCV NS3 protease (Hepatitis C virus genotype 1b, UniProt P26662)
Assay: Microplate protease activity assay
Format: biochemical, hepatitis C virus (J strain)
Conditions: Table I; inhibition of HCV NS3 protease, co-factor Pep4AK, tritiated substrate
Protocol: Microplate Protease Activity Assay
The HCV-protease (J strain) was stored until use at −80° C. in 250 mM NaCl, phosphate buffer pH 6.5, 50% glycerol, 0.1% CHAPS. As protease co-factor the peptide Pep4AK (KKKGSVVIVGRIILSGR-NH2), spanning the central hydrophobic core (residues 21–34) of the NS4A protein, with a three-lysine tag at the N-terminus to increase solubility (Bianchi, E. et al., Biochemistry 36, 7890–7897;1997), was used. Pep4AK was stored at −80° C. in DMSO; the tritiated substrate Ac-DEMEECASHLPYK (^3H-Ac)-NH2, and the corresponding cold substrate Ac-DEMEECASHLPYK(Ac)-NH2 were stored at −80° C. in DMSO/DTT.
The assay was run in Costar polypropylene 96-well plates. The composition of the reaction mixture was as follows (100 μl): • Glycerol 15% • DTT 30 mM • Hepes pH 7,5 50 mM • Triton X-100 0.05% • Protease 10 nM • hot+cold substrate 5 μM (300.000 cpm) • Pep4AK 15 μM
Test compounds were dissolved—in DMSO (final concentration 10% DMSO)
Pep4AK was pre-incubated with protease for 5 min prior to addition of substrate mix. In these conditions, the substrate Km was 7±2 μM. Test compounds were added at 8 different concentrations in 8 different wells. Plates were shaken for 30 minutes at room temperature, then an ionic exchange resin (100 μl of 20% Fractogel TSK-DEAE® 650S, Merck) was added to capture unprocessed substrate and plates shaken for another 10 minutes. After allowing the resin to settle by centrifugation, 30 μl of the reaction mix were transferred in a 96-well plate (Picoplate, Packard), admixed with 250 μl of scintillation cocktail Microscint 40, and the radioactivity measured in a scintillation Packard Top Count β-counter.
IC50 was calculated from the test compound dilution curve, as the concentration of compound giving 50% inhibitions.

Chain of HCV NS3 protease (P26662 1027-1206, other chains not shown): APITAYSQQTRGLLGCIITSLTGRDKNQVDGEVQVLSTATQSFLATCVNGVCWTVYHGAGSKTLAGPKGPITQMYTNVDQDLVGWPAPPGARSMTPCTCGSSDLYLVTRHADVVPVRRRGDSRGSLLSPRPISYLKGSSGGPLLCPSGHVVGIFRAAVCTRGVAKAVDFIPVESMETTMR

In order of rising IC50:
1. CC(C)C[C@H](NC(=O)[C@H](CC(=O)O)NC(=O)[C@H](CC1CCCCC1)NC(=O)[C@@H]1CCCC[C@H]1C(=O)O)C(N)=O (single isomer, unassigned) [Example 1, R1R-cyclohexane-1,2-dicarboxylate monoamide of Cha-Asp-Leu-NH2]  15 µM
2. S,S-cyclohexane-1,2-dicarboxylate monoamide of Cha-Asp-Leu-NHEt [Example 3]  32 µM
3. CCNC(=O)[C@H](CC(C)C)NC(=O)[C@H](CC(=O)O)NC(=O)[C@H](CC1CCCCC1)NC(=O)C1=C(C(=O)O)CCCC1 [Example 4]  38 µM
4. CC(C)C[C@H](NC(=O)[C@H](CC(=O)O)NC(=O)[C@H](CC1CCCCC1)NC(=O)[C@H]1CCCC[C@@H]1C(=O)O)C(N)=O [Example 2, SS-cyclohexane-1,2-dicarboxylate monoamide of Cha-Asp-Leu-NH2]  54 µM
5. CC(C)C[C@H](NC(=O)[C@H](CC(=O)O)NC(=O)[C@H](CC1CCCCC1)NC(=O)[C@@H]1CCC[C@H]1C(=O)O)C(N)=O [Example 5]  60 µM
6. CCNC(=O)[C@H](CC(C)C)NC(=O)[C@H](CC(=O)O)NC(=O)[C@H](CC1CCCCC1)NC(=O)c1ccccc1C(=O)O [Example 7]  64 µM
7. CC(C)C[C@H](NC(=O)[C@H](CC(=O)O)NC(=O)[C@H](CC1CCCCC1)NC(=O)c1ccccc1C(=O)O)C(N)=O [Example 6]  64 µM

Same assay, conditions: Table II; inhibition of HCV NS3 protease, co-factor Pep4AK, tritiated substrate

In order of falling IC50:
1. CC(C)C[C@H](NC(=O)[C@H](CC(=O)O)NC(=O)[C@@H](NC(=O)[C@@H]1CCCC[C@H]1C(=O)O)c1ccccc1F)C(N)=O [Example 14]  47 µM
2. CC(C)C[C@H](NC(=O)[C@H](CC(=O)O)NC(=O)[C@@H](NC(=O)[C@@H]1CCCC[C@H]1C(=O)O)c1ccccc1)C(N)=O [Example 13]  40 µM
3. CC(C)C[C@H](NC(=O)[C@H](CC(=O)O)NC(=O)[C@@H](NC(=O)[C@@H]1CCCC[C@H]1C(=O)O)c1ccc(Cl)cc1)C(N)=O [Example 12]  37 µM
4. CC(C)C[C@H](NC(=O)[C@H](CC(=O)O)NC(=O)[C@@H](NC(=O)[C@@H]1CCCC[C@H]1C(=O)O)c1cccc(OC(=O)[C@@H]2CCCC[C@H]2C(=O)O)c1)C(N)=O [Example 11]  35 µM
5. CC(C)C[C@H](NC(=O)[C@H](CC(=O)O)NC(=O)[C@@H](NC(=O)[C@@H]1CCCC[C@H]1C(=O)O)c1ccc(Br)cc1)C(N)=O [Example 15]  26 µM
6. CC(C)C[C@H](NC(=O)[C@H](CC(=O)O)NC(=O)[C@@H](NC(=O)[C@@H]1CCCC[C@H]1C(=O)O)c1cccc(OC(=O)Cc2ccc3ccccc3c2)c1)C(N)=O [Example 10]  22 µM
7. CC(C)C[C@H](NC(=O)[C@H](CC(=O)O)NC(=O)[C@@H](NC(=O)[C@@H]1CCCC[C@H]1C(=O)O)c1cccc(OC(=O)Cc2cccc3ccccc23)c1)C(N)=O [Example 9]  22 µM
8. CC(C)CC(NC(=O)C(CC(=O)O)NC(=O)C(NC(=O)C1CCCCC1C(=O)O)c1cccc(OC(=O)CC(c2ccccc2)c2ccccc2)c1)C(N)=O (single isomer, unassigned) [Example 8]  13 µM

Same assay, conditions: Table III; inhibition of HCV NS3 protease, co-factor Pep4AK, tritiated substrate

In order of rising IC50:
1. CC(C)C[C@H](NC(=O)[C@H](CCC(=O)O)NC(=O)[C@H](CC1CCCCC1)NC(=O)[C@@H]1CCCC[C@H]1C(=O)O)C(N)=O [Example 16]  41 µM
2. CC(C)C[C@H](NC(=O)[C@H](CC(=O)O)N(C)C(=O)[C@H](CC1CCCCC1)NC(=O)[C@@H]1CCCC[C@H]1C(=O)O)C(N)=O [Example 17]  100 µM
3. CC(C)C[C@H](NC(=O)[C@H](CC(=O)O)N(C)C(=O)[C@H](CC1CCCCC1)NC(=O)c1ccccc1C(=O)O)C(N)=O [Example 18]  115 µM

Same assay, conditions: Table IV; inhibition of HCV NS3 protease, co-factor Pep4AK, tritiated substrate

In order of falling IC50:
1. O=C(O)CCN(CCc1ccc(Cl)cc1Cl)C(=O)[C@H](CC1CCCCC1)NC(=O)[C@@H]1CCCC[C@H]1C(=O)O [Example 33]  177 µM
2. O=C(O)CCN(CC(c1ccccc1)c1ccccc1)C(=O)[C@H](CC1CCCCC1)NC(=O)[C@@H]1CCCC[C@H]1C(=O)O [Example 32]  133 µM
3. COc1ccc(CCN(CCC(=O)O)C(=O)[C@@H](NC(=O)[C@@H]2CCCC[C@H]2C(=O)O)c2ccccc2)cc1OC [Example 31]  123 µM
4. O=C(O)CCN(CCc1ccccc1Cl)C(=O)[C@@H](NC(=O)[C@@H]1CCCC[C@H]1C(=O)O)c1ccccc1F [Example 28]  70 µM
5. COc1cccc(CCN(CCC(=O)O)C(=O)[C@@H](NC(=O)[C@@H]2CCCC[C@H]2C(=O)O)c2ccccc2F)c1 [Example 27]  66 µM
6. CCOC(=O)CCN(CCC(c1ccccc1)c1ccccc1)C(=O)[C@@H](NC(=O)[C@H]1CCCC[C@@H]1C(=O)O)c1ccc(Br)cc1 [Example 24]  60 µM
7. NC(=O)CCN(CCC(c1ccccc1)c1ccccc1)C(=O)[C@@H](NC(=O)[C@H]1CCCC[C@@H]1C(=O)O)c1ccc(Br)cc1 [Example 25]  59 µM
8. O=C(O)CCN(CCC(c1ccccc1)c1ccccc1)C(=O)[C@H](CC1CCCCC1)NC(=O)[C@@H]1CCCC[C@H]1C(=O)O [Example 20]  55 µM
9. O=C(O)CCN(CCc1ccc(Cl)cc1Cl)C(=O)[C@@H](NC(=O)[C@@H]1CCCC[C@H]1C(=O)O)c1ccccc1 [Example 30]  49 µM
10. COc1ccccc1CCN(CCC(=O)O)C(=O)[C@@H](NC(=O)[C@@H]1CCCC[C@H]1C(=O)O)c1ccccc1F [Example 26]  44 µM
11. O=C(O)CCN(CC(c1ccccc1)c1ccccc1)C(=O)[C@@H](NC(=O)[C@@H]1CCCC[C@H]1C(=O)O)c1ccccc1 [Example 29]  39 µM
12. O=C(O)CCN(CCC(c1ccccc1)c1ccccc1)C(=O)[C@@H](NC(=O)[C@@H]1CCCC[C@H]1C(=O)O)c1ccccc1 (single isomer, unassigned) [Example 19]  14 µM
13. O=C(O)CCN(CCC(c1ccccc1)c1ccccc1)C(=O)[C@@H](NC(=O)[C@@H]1CCCC[C@H]1C(=O)O)c1ccc(C(F)(F)F)cc1 [Example 22]  7 µM
14. O=C(O)CCN(CCC(c1ccccc1)c1ccccc1)C(=O)[C@@H](NC(=O)[C@@H]1CCCC[C@H]1C(=O)O)c1ccccc1F [Example 23]  6 µM
15. O=C(O)CCN(CCC(c1ccccc1)c1ccccc1)C(=O)[C@@H](NC(=O)[C@@H]1CCCC[C@H]1C(=O)O)c1ccc(Br)cc1 [Example 21]  1.7 µM
